For assay [1], the system named is Fgr hyphae. The format is cell-based, Fusarium graminearum.
For assay [2], the system named is hyphal cells. The format is cell-based.
Assay [3] deals with Fov hyphae. The format is cell-based, Fusarium oxysporum f. sp vasinfectum.

“Also recorded” adds a separate entry of the source. No end group written: not given here.

For the substance “HXL001: Class I plant defensin, Zea mays, mature domain SEQ ID NO: 3 (RHCLSQSHRFKGLCMSSNNCANVCETQNFPGGECKAEGATRKCFCKKIC; HXL001 Zea mays mature domain)”, the Permeability index in assay [1] amounted to 0.9. Moreover, in assay [2], the Permeabilizing result was “Yes”.

For the substance “HXL002: Class I plant defensin, Triticum aestivum, mature domain SEQ ID NO: 6 (RDCLSQSHKFKGACLSSSNCAAVCRTENFPDGECHTHNFARKCFCKRAC; HXL002 Triticum aestivum mature domain)”, in assay [1], the Permeability index stood at 1.0 and the “permeabilization of Fgr hyphae (SYTOX green uptake), in words” value (shortened to “permeabilization of Fgr hyphae”) is listed as “significantly more permeabilisation of Fgr hyphae; also recorded: permeabilizing”. Also, the Permeabilizing entry in assay [2] is “Yes”. Moreover, in assay [3], the Permeability index was determined as 0.9 and the “permeabilization of Fov hyphae (SYTOX green uptake), in words” value (from here on “permeabilization of Fov hyphae”) is recorded as “able to permeabilize Fov hyphae; also recorded: permeabilizing”.

On to “HXL004: Class I plant defensin, Nicotiana benthamiana, mature domain SEQ ID NO: 12 (RTCESQSHRFKGLCFSRSNCASVCHTEGFNGGHCRGFRRRCFCTRHC; HXL004 Nicotiana benthamiana mature domain aa)”, for which, in assay [1], the Permeability index is reported as 1.6 and the “permeabilization of Fgr hyphae” value is recorded as “significantly more permeabilisation of Fgr hyphae; also recorded: permeabilizing”. The Permeabilizing entry in assay [2] was “Yes”.

On to “HXL005: Class I plant defensin, Taraxacum kok-saghyz, mature domain SEQ ID NO: 15 (KMCQTTSHAFSCVNDSGCSGSCEKQGFASGKCDGVRRRCTCYKKC; HXL005 Taraxacum kok-saghyz mature domain)”, for which the Permeabilizing entry in assay [2] was “No”.

“HXL007: Class I plant defensin, Cyamopsis tetragonoloba, mature domain SEQ ID NO: 21 (RTCESLADTYRGPCFTDGSCDDHCKNKEHLISGRCRNDFRCWCTRNC; HXL007 Cyamopsis tetragonoloba mature domain)”: the Permeabilizing result in assay [2] is listed as “Yes”. In assay [3], the Permeability index worked out at 1.2 and the “permeabilization of Fov hyphae” value was “able to permeabilize Fov hyphae; also recorded: permeabilizing”.

Take “HXL008: Class I plant defensin, Picramnia pentandra, mature domain SEQ ID NO: 24 (KVCTKPSKFFKGLCGTDGACTTACRKEGLHSGYCQLKGFLNSVCVCRKHC; HXL008 Picramnia pentandra mature domain aa)”: in assay [1], the Permeability index came to 0.9 and the “permeabilization of Fgr hyphae” value is recorded as “significantly more permeabilisation of Fgr hyphae; also recorded: permeabilizing”. Also, the Permeabilizing entry in assay [2] is “Yes”. Moreover, in assay [3], the Permeability index is 0.8 and the “permeabilization of Fov hyphae” value is listed as “able to permeabilize Fov hyphae; also recorded: permeabilizing”.

With “HXL009: Class I plant defensin, Zea mays, mature domain SEQ ID NO: 27 (TVCMRHNNFYHGPCMSNKDCANSCVQHNLGVGGYCRGKIPFNKECMCTFEC; HXL009 Zea mays mature domain aa)”, in assay [1], the Permeability index stood at 0.4 and the “permeabilization of Fgr hyphae” value is given as “non-permeabilizing”. The Permeabilizing entry in assay [2] is reported as “No”.

Take “HXL013: Class I plant defensin, Glycine max, mature domain SEQ ID NO: 39; Table 2 gives SBI6 the same SEQ ID NO (KDCLTRRHGFQGRCLFDRQCAHVCRSDGPIGGQCRGPLRKCFCSRPC; HXL013 Glycine max mature domain aa)”: in assay [1], the Permeability index is on record as 1.4 and the “permeabilization of Fgr hyphae” value was “permeabilizing”. Moreover, the Permeabilizing entry in assay [2] is “Yes”.

For “HXL015: Class I plant defensin, Oryza sativa, mature domain SEQ ID NO: 45 (RHCLSQSHRFKGMCVSSNNCANVCRTESFPDGECKSHGLERKCFCKKVC; HXL015 Oryza sativa mature domain aa)”, the Permeabilizing result in assay [2] was “No”.

On to “HXL021: Class I plant defensin, Arachis hypogaea, mature domain SEQ ID NO: 63 (ATCENLADTYRGPCFTTGSCDDHCKNKEHLLSGRCRDDFRCWCTRNC; HXL021 Arachis hypogaea mature domain aa)”, for which, in assay [1], the Permeability index was 0.5 and the “permeabilization of Fgr hyphae” value is given as “non-permeabilizing”. Further, in assay [2], the Permeabilizing entry is “No”.

Turning to “HXP4: artificial variant defensin, SEQ ID NO: 70 (RECKTESHRFKGPCITKPPCRKACISEKFTDGHCSKILRRCLCTKPC; Amino acid sequence of HXP4 (NaD2 Loop1B [NaD2L1B] in NaD1))”, in assay [1], the Permeability index was 1.3 and the “permeabilization of Fgr hyphae” value was “significantly more permeabilisation of Fgr hyphae; also recorded: permeabilizing”. Also, the Permeabilizing result in assay [2] was “Yes”. In assay [3], the Permeability index is listed as 0.7 and the “permeabilization of Fov hyphae” value was “able to permeabilize Fov hyphae; also recorded: permeabilizing”.

For “HXP34: artificial variant defensin, SEQ ID NO: 71 (RECKTESQHHSFPCITKPPCRKACISEKFTDGHCSKILRRCLCTKPC; Amino acid sequence of HXP34 (Zea2 Loop1B [Zea2L1B] in NaD1))”, in assay [2], the Permeabilizing entry is “Yes”.

Regarding “HXP35: artificial variant defensin, SEQ ID NO: 72 (RECKTESDTYRGVCITKPPCRKACISEKFTDGHCSKILRRCLCTKPC; Amino acid sequence of HXP35 (PsD1 Loop1B [PsDL1B] in NaD1))”, the Permeabilizing result in assay [2] is on record as “Yes”.

For “Hordothionin: Class I plant defensin, Hordeum vulgare, accession P20230”, in assay [1], the Permeability index was 0.4 and the “permeabilization of Fgr hyphae” value was “non-permeabilizing”. For the same substance, in assay [2], the Permeabilizing entry was “No”.

“NaD1: Class II plant defensin, Nicotiana alata, accession Q8GTM0; positive control of the permeabilization assay (RECKTESNTFPGICITKPPCRKACISEKFTDGHCSKILRRCLCTKPC; UniProt Q8GTM0 26-72, looked up) [reference compound]”: in assay [1], the Permeability index amounted to 1.0 and the “permeabilization of Fgr hyphae” value is reported as “significantly more permeabilisation of Fgr hyphae; also recorded: permeabilizing”. The Permeabilizing entry in assay [2] is recorded as “Yes”. Further, in assay [3], the Permeability index came out at 1.0 and the “permeabilization of Fov hyphae” value was “able to permeabilize Fov hyphae; also recorded: permeabilizing”.

In the case of “NoD173: Class II plant defensin, Nicotiana occidentalis, mature domain SEQ ID NO: 98 (RQCKAESNTFTGICIAKPPCRQACIREKFTDGHCSKVLRRCLCTKRC; NoD173 Nictoniana occidentalis)”, the Permeabilizing entry in assay [2] was “Yes”.

Take “RsAFP2: Class I plant defensin, Raphanus sativus, accession P30230 (QKLCQRPSGTWSGVCGNNNACKNQCIRLEKARHGSCNYVFPAHKCICYFPC; ends and bridges not checked; cysteine pairing not given here; UniProt P30230 30-80, looked up)”: in assay [1], the Permeability index came to 0.3 and the “permeabilization of Fgr hyphae” value is reported as “non-permeabilizing”. The Permeabilizing result in assay [2] is reported as “No”.

For “VP42: Class I plant defensin, Triticum aestivum, mature domain SEQ ID NO: 81 (RHCESQSHRYRGACWRDDNCKHVCNTEGFPSGKCKFHGFESKCVCTKPC; VP42 mature domain)”, the Permeabilizing entry in assay [2] is recorded as “No”.

On to “VP45: Class I plant defensin, Zea mays, mature domain SEQ ID NO: 83 (TVCMRHNNFYHGPCMSNKDCANSCVQHNLGVGGYCRGKIPFNKECMCTFEC; VP45 mature domain)”, for which the Permeabilizing result in assay [2] is listed as “No”.

As for “VP135: Class I plant defensin, Picramnia pentandra, mature domain SEQ ID NO: 85 (RICSSLSHGYKGPCASDHNCALVCRNEGFSGGDCHGLRRRCFCTKAC; VP135 mature domain)”, the Permeabilizing result in assay [2] is recorded as “No”.

The record behind these values is patent US10357536B2, “Anti-pathogenic methods” (Hexima Limited, priority 2012, dated 2019).
